# Patent US20250326742A1, “THERAPEUTIC COMPOUNDS” (RUTGERS, THE STATE UNIVERSITY OF NEW JERSEY, priority 2024, published 2025)
# Experiments:
# [1] = Cytotoxicity assay in Vero E6 cells (neutral red uptake); format: cell-based; conditions: African green monkey, 2 days at 37° C.
# Experimental: (§1) Cytotoxicity Assay in Vero E6 Cells
# (§2) Briefly, 80,000 cells/ml of the tested cell lines were dispensed into 96-well cell culture plates at 100 μl per well. Twenty-four hours later, the growth medium was removed and washed with 150 μl of PBS buffer. Two hundred microliters of fresh serum-free medium containing serial diluted compounds was added to each well. After incubating for 2 days at 37° C., the medium was removed and replaced with 100 μl of DMEM medium containing neutral red (40 μg/ml) and incubated for 2 to 4 hours at 37° C. The amount of neutral red taken up was determined by measuring the absorbance at 540 nm using a Multiskan FC Microplate Photometer (Thermo Fisher Scientific). The CC50 values were calculated from best-fit dose-response curves with variable slope in Prism 8.
# SARS-CoV-2 PLpro = SARS-CoV-2 PLpro (Severe acute respiratory syndrome coronavirus 2, UniProt P0DTD1); assay: biochemical; conditions: 200 nM PLpro, 10 μM FRET substrate, 30 min preincubation at 30° C.
# Experimental: FRET-Based PL^pro Enzymatic Assay
# The SARS-CoV-2 PL^pro enzymatic assays were carried out as follows: The assay was assembled in 96-well plates with 100 μl of 200 nM PL^Pro protein in PL^Pro reaction buffer [50 mM Hepes (pH 7.5), 0.01% Triton X-100, and 5 mM DTT]. Then, 1 μl of testing compound at various concentrations was added to each well and incubated at 30° C. for 30 minutes. The enzymatic reaction was initiated by adding 1 μl of 1 mM FRET substrate (the final substrate concentration is 10 μM). The reaction was monitored in a Cytation 5 image reader with filters for excitation at 360/40 nm and emission at 460/40 nm at 30° C. for 1 hour. The initial velocity of the enzymatic reaction with and without testing compounds was calculated by linear regression for the first 15 minutes of the kinetic progress curve. The ICso values were calculated by plotting the initial velocity against various concentrations of testing compounds with a dose-response function in Prism 8 software.
# [2] = system: SARS-CoV-2 viral replication; conditions: cited from earlier work
# Vero E6 cells = assay: Cytotoxicity assay in Vero E6 cells (neutral red uptake); format: cell-based; conditions: 2 days at 37° C.
# Experimental: as §1, §2
Compound,CC50 at 2 days [1] [µM],IC50 (SARS-CoV-2 PLpro) [µM],EC50 [2] [µM],CC50 (Vero E6 cells) [µM]
"CCOC(=O)/C=C/C(=O)NCC(=O)NCc1ccccc1C(=O)NC1(c2cc(-c3cnn(C)c3)cc(-c3ccn(CC)n3)c2)CC1 [Example 23, ethyl (E)-4-((2-((2-((1-(3-(1-ethyl-1H-pyrazol-3-yl)-5-(1-methyl-1H-pyrazol-4-yl)phenyl)cyclopropyl)carbamoyl)benzyl)amino)-2-oxoethyl)amino)-4-oxobut-2-enoate]",> 500,1 to 5,,
"CCn1ccc(-c2cc(-c3cnn(C)c3)cc(C3(NC(=O)c4ccccc4CNC(=O)CNC(=O)/C=C/C(=O)N4CC(F)(F)C4)CC3)c2)n1 [Example 24, (E)-2-((2-(4-(3,3-difluoroazetidin-1-yl)-4-oxobut-2-enamido)-acetamido)methyl)-N-(1-(3-(1-ethyl-1H-pyrazol-3-yl)-5-(1-methyl-1H-pyrazol-4-yl)phenyl)cyclopropyl)benzamide]",> 500,1 to 5,,
"CCn1ccc(-c2cc(-c3cnn(C)c3)cc([C@@H](C)NC(=O)c3ccccc3CNC(=O)CNC(=O)/C=C/C(=O)N3CC(F)(F)C3)c2)n1 [Example 25, (R,E)-2-((2-(4-(3,3-difluoroazetidin-1-yl)-4-oxobut-2-enamido)acetamido)methyl)-N-(1-(3-(1-ethyl-1H-pyrazol-3-yl)-5-(1-methyl-1H-pyrazol-4-yl)phenyl)ethyl)benzamide]",> 500,< 1,,
"CCn1ccc(-c2cc(-c3cnn(C)c3)cc([C@@H](C)NC(=O)c3ccccc3CCC(=O)NNC(=O)C34CC(C3)C4)c2)n1 [Example 27, (R)-2-(3-(2-(bicyclo[1.1.1]pentane-1-carbonyl)hydrazineyl)-3-oxopropyl)-N-(1-(3-(1-ethyl-1H-pyrazol-3-yl)-5-(1-methyl-1H-pyrazol-4-yl)phenyl)ethyl)benzamide]",> 250,> 5,,
"CCn1ccc(-c2cc(-c3cnn(C)c3)cc([C@@H](C)NC(=O)c3ccccc3CCC(=O)NCC(=O)CF)c2)n1 [Example 28, (R)-N-(1-(3-(1-ethyl-1H-pyrazol-3-yl)-5-(1-methyl-1H-pyrazol-4-yl)phenyl)ethyl)-2-(3-((3-fluoro-2-oxopropyl)amino)-3-oxopropyl)benzamide]",> 250,> 5,,
"C=CC(=O)NCC(=O)NCc1ccccc1C(=O)N[C@H](C)c1cc(-c2cnn(C)c2)cc(-c2ccn(C)n2)c1 [Example 29, (R)-2-((2-acrylamidoacetamido)methyl)-N-(1-(3-(1-methyl-1H-pyrazol-3-yl)-5-(1-methyl-1H-pyrazol-4-yl)phenyl)ethyl)benzamide]",> 500,> 5,,
"C=CS(=O)(=O)NCC(=O)NCc1ccccc1C(=O)N[C@H](C)c1cc(-c2cnn(C)c2)cc(-c2ccn(C)n2)c1 [Example 30, (R)-N-(1-(3-(1-methyl-1H-pyrazol-3-yl)-5-(1-methyl-1H-pyrazol-4-yl)phenyl)ethyl)-2-((2-(vinylsulfonamido)acetamido)methyl)benzamide]",> 250,< 1,,
"C[C@@H](NC(=O)c1ccccc1CNC(=O)CNC(=O)CC#N)c1cc(-c2cnn(C)c2)cc(-c2ccn(C)n2)c1 [Example 31, (R)-2-((2-(2-cyanoacetamido)acetamido)methyl)-N-(1-(3-(1-methyl-1H-pyrazol-3-yl)-5-(1-methyl-1H-pyrazol-4-yl)phenyl)ethyl)benzamide]",> 500,> 5,,
Cc1ccc(N)cc1C(=O)N[C@H](C)c1cccc2ccccc12 [GRL0617],,,~20,
(R)-2-(3-((2-Cyanoethyl)amino)-3-oxopropyl)-N-(1-(3-(1-ethyl-1H-pyrazol-3-yl)-5-(1-methyl-1H-pyrazol-4-yl)phenyl)ethyl)benzamide [Example 1],,> 5,,146
